The values below are quoted from earlier work in patent publication US11559637B2, “Inhalers and related methods” (Norton (Waterford) Limited, priority 2017, dated 2023).

For the molecule `FCC(F)(F)F` [HFA134a, 1,1,1,2-tetrafluoroethane], the surface tension result (as liquid at 25° C.) is on record as “about 8 mN/m”. In addition, the vapor pressure (at 20° C.) is given as 572 kpa.
